Legend:
[1] = mouse, in vivo, sc, 25 mg/kg
Procedure: (§1) Seven-week old male C57B1/6J-Lepr db/db mice (Jackson Laboratory, Bar Harbor, Me.) were fed a diet with a fat content of about 14% and were subcutaneously injected with one or more of the oligomeric compounds of the invention or a control compound at a dose of 25 mg/kg two times per week. Glucose-6-phosphatase translocase antisense oligonucleotides used were ISIS 148985 (SEQ ID NO: 118) and ISIS 149008 (SEQ ID NO: 141). ISIS 116847 (SEQ ID NO: 143), targeted to mouse PTEN, was used as a positive control. The scrambled control oligonucleotide ISIS 141923 ([…], incorporated herein as SEQ ID NO: 144) served as a negative control along with saline-injected animals. ISIS 141923 and ISIS 116847 are chimeric oligonucleotides (“gapmers”) 20 nucleotides in length, composed of a central “gap” region consisting of 10 2′-deoxynucleotides, which is flanked on both sides (5′ and 3′) by five-nucleotide “wings”. The wings are composed of 2′-O-(2-methoxyethyl) nucleotides, also known as 2′-MOE nucleotides. The internucleoside (backbone) linkages are phosphorothioate throughout the oligonucleotide. All cytidine residues are 5-methylcytidines.
Patients with the human glycogen storage disease type 1b have mutations in the glucose-6-phosphatase translocase gene. Because one manifestation of these mutations is a defect in hepatic glycogen […] leading to glycogen accumulation in the liver, the db/db mice were further evaluated at the end of the treatment period for liver glycogen stores. Tissue glycogen was measured using the Glucose Trinder Reagent (Sigma-Aldrich, St. Louis, Mo.). Results are presented as the average level from 5 animals per treatment. Glycogen levels of mice treated with saline alone were approximately 46 mg/g of tissue. Levels in mice treated with the positive control antisense compound ISIS 116847 had decreased levels of approximately 30 mg/g. Mice treated with the scrambled control compound ISIS 141923 had levels more similar to saline control of approximately 39 mg/g. Mice treated with ISIS 149008 or 148985, the antisense inhibitors of glucose-6-phosphatase translocase, had glycogen levels of approximately 38 mg/g and 37 mg/g, respectively.

db/db mice [2] = assay: Fed plasma glucose in db/db mice, dose-response study (Example 11); type: in vivo, mouse
Procedure: (§2) Seven-week old male C57B1/6J-Lepr db/db mice (Jackson Laboratory, Bar Harbor, Me.) were fed a diet with a fat content of about 14% (Formulab Diet 5008) and were subcutaneously injected with ISIS 116847 (SEQ ID NO: 143), ISIS 141923 (SEQ ID NO: 144), or ISIS 148985 (SEQ ID NO: 118), an antisense inhibitor of glucose-6-phosphatase translocase, […] […] Saline-injected animals served as controls. 48 hours after the eighth and final dose was administered, mice were sacrificed and target levels were evaluated in liver. RNA isolation and target mRNA expression level quantitation were performed as described by other examples herein.
For seven animals per treatment group, plasma glucose was measured with routine clinical analyzer instruments (e.g. Olympus Clinical Analyzer). Data are expressed as averages per treatment group.

db/db mice [3] = assay: Fed and fasted plasma glucose in db/db mice (Example 10); type: in vivo, mouse; conditions: 25 mg/kg s.c. twice weekly; for fasted plasma glucose: week 3, overnight fast, saline 343
Procedure: as §1
The effects of target inhibition on glucose metabolism were evaluated in the db/db mice treated with the oligomeric compounds of the invention. For seven animals per treatment group, plasma glucose (fed) was measured prior to the start of the treatment (week 0) and during weeks 2 and 4 of treatment. Fasted glucose measurements were made during week three, after animals were fasted overnight (about 15 hours). Data are expressed as the averages per treatment group.

[4] = Plasma neutrophils and lymphocytes in db/db mice (Table 9); type: in vivo, mouse
Procedure: as §2
Because mutations in the glucose-6-phosphatase translocase gene responsible for human glycogen storage disease type 1b result in neutropenia, plasma neutrophils and lymphocytes were measured for animals in each treatment group.

[5] = tested on: glucose-6-phosphatase translocase mRNA; assay: Target mRNA reduction in liver of ob/ob mice; type: in vivo, mouse; conditions: 25 mg/kg s.c. twice weekly, eight doses
Procedure: Seven-week old male C57B1/6J-Lep ob/ob mice (Jackson Laboratory, Bar Harbor, Me.) were fed a diet with a fat content of about 22% and were subcutaneously injected with oligonucleotides at a dose of 25 mg/kg two times per week. A total of eight doses were administered. Glucose-6-phosphatase translocase antisense oligonucleotides used were ISIS 148985 (SEQ ID NO: 118) and ISIS 149008 (SEQ ID NO: 141). […]; incorporated herein as SEQ ID NO: 143), targeted to mouse PTEN, was used as a positive control. Saline-injected animals served as negative controls. […] Glucose-6-phosphatase translocase mRNA levels in ob/ob mouse livers were measured at the end of the study using RIBOGREENTM RNA quantification reagent (Molecular Probes, Inc. Eugene, Oreg.) as taught in previous examples above.

ob/ob mice = assay: Oral glucose tolerance test in ob/ob mice (Table 6); type: in vivo, mouse; conditions: 25 mg/kg twice weekly; for plasma glucose, OGTT: after 6th dose
Procedure: The mice described in Example 7 were evaluated for performance on glucose tolerance tests after the 6th dose of saline or antisense oligonucleotides. Through measurement of glucose levels following the administration of a bolus of glucose, tolerance tests assess the physiological response to a glucose challenge.
Oral glucose tolerance tests (OGTT) were performed during the third week of treatment with saline, ISIS 116847 (targeted to PTEN, SEQ ID NO: 143), ISIS 148985 (SEQ ID NO: 118), or ISIS 149008 (SEQ ID NO: 141). To provide a baseline glucose level, fasted blood glucose levels were measured before the challenge. Glucose was administered by oral gavage via an 18 g gavage needle at a dose of 1 g/kg. Plasma glucose levels were measured for 30, 60, 90 and 120 minutes post-challenge using an Ascencia Glucometer Elite XL (Bayer, Tarrytown, N.Y.).
The results are presented in Table 6 as the average result (plasma glucose in mg/dL) from each treatment group (n=7). Saline-treated mice served as the control to which glucose levels were compared.

[6] = 25 mg/kg twice weekly, week 0, saline 280
[7] = 25 mg/kg twice weekly, week 2, saline 517
[8] = 25 mg/kg twice weekly, week 4, saline 510
[9] = 25 mg/kg twice weekly 4 weeks (25 mg/mL [sic]), saline 0.9
[10] = 25 mg/kg twice weekly 4 weeks (25 mg/mL [sic]), saline 2.7
[11] = 0 min post-glucose challenge (fasted)

Sequence	Liver glycogen levels [1]	fed plasma glucose (db/db mice [2]; [6])	fed plasma glucose (db/db mice [2]; [7]) [mg/dL]	fed plasma glucose (db/db mice [2]; [8]) [mg/dL]	fed plasma glucose (db/db mice [3]; week 0, saline 270)	fed plasma glucose (db/db mice [3]; week 2, saline 534) [mg/dL]	fasted plasma glucose (db/db mice [3])	fed plasma glucose (db/db mice [3]; week 4, saline 627) [mg/dL]	Neutrophils Plasma [4, 9] [cells/nL]	Lymphocytes Plasma [4, 10] [cells/nL]	Glucose-6-phosphatase translocase mRNA levels in liver, reduction compared to saline [5]	plasma glucose, OGTT (ob/ob mice; [11]) [mg/dL]	plasma glucose, OGTT (ob/ob mice; 30 min post-glucose challenge) [mg/dL]	plasma glucose, OGTT (ob/ob mice; 60 min post-glucose challenge) [mg/dL]	plasma glucose, OGTT (ob/ob mice; 90 min post-glucose challenge) [mg/dL]	plasma glucose, OGTT (ob/ob mice; 120 min post-glucose challenge) [mg/dL]	further results
CCTTCCCTGAAGGTTCCTCC (chemistry not given here) [ISIS 141923, scrambled control oligonucleotide, negative control, reference compound]	approximately 39 mg/g	approximately 287 mg/dL	~456	~510	approximately 272 mg/dL	~538	approximately 287 mg/dL	~563	0.9	2.6	–	–	–	–	–	–	–
CTGCTAGCCTCTGGATTTGA (chemistry not given here) [ISIS 116847, positive control oligonucleotide targeted to mouse PTEN, reference compound]	approximately 30 mg/g	approximately 282 mg/dL	~291	~224	approximately 267 mg/dL	~360	approximately 241 mg/dL	~334	0.8	3.1	approximately 36%	286	290	238	229	194	–
GCTCCATAGCGAGGACTCGA (chemistry not given here) [ISIS 148985]	~37 mg/g	approximately 289 mg/dL	~394	~443	approximately 267 mg/dL	~512	approximately 288 mg/dL	~552	1.0	3.3	approximately 52%	293	489	433	331	305	–
TATACAAGTCGGTTTGCCCT (chemistry not given here) [ISIS 149008]	approximately 38 mg/g	approximately 286 mg/dL	~359	~299	approximately 272 mg/dL	~390	approximately 241 mg/dL	~347	1.0	3.7	approximately 87%	237	372	276	238	214	fed plasma glucose (db/db mice [2]; 6.25 mg/kg twice weekly, week 0): approximately 289 mg/dL; fed plasma glucose (db/db mice [2]; 6.25 mg/kg twice weekly, week 2): ~397 mg/dL; fed plasma glucose (db/db mice [2]; 6.25 mg/kg twice weekly, week 4): ~478 mg/dL; fed plasma glucose (db/db mice [2]; 12.5 mg/kg twice weekly, week 0): approximately 283 mg/dL; fed plasma glucose (db/db mice [2]; 12.5 mg/kg twice weekly, week 2): ~411 mg/dL; fed plasma glucose (db/db mice [2]; 12.5 mg/kg twice weekly, week 4): ~203 mg/dL; Lymphocytes Plasma ([4]; dose 12.5 mg/mL [sic]): 3.2 cells/nL; Neutrophils Plasma ([4]; dose 12.5 mg/mL [sic]): 0.9 cells/nL; Lymphocytes Plasma ([4]; dose printed 6 mg/mL): 2.8 cells/nL; Neutrophils Plasma ([4]; dose printed 6 mg/mL): 1.1 cells/nL; glucose tolerance (in words) (ob/ob mice; OGTT): improved glucose tolerance

Source: patent US8258114B2, “Modulation of glucose-6-phosphatase translocase expression” (Isis Pharmaceuticals, Inc., priority 2004, dated 2012)
